Results as given in US20250034575A1, “OLIGONUCLEOTIDES FOR DGAT2, FASN, OPN, AND NOX4 MODULATIONS” (UNIVERSITY OF MASSACHUSETTS, priority 2023, published 2025).

Experiments:
LX2 human stellate cells = assay: Tgf-β driven activation of LX2 human stellate cells with Fasn inhibitor; type: cell-based
Procedure: In vitro screening of LX2 human stellate cells was executed by plating 500,000 cells/well in 6-well plates overnight at 37° C., 5% CO2 in 0% FBS DMEM medium (11885-076, Gibco). Following a 4-hour pre-treatment with 1 nM or 100 nM Fasn inhibitor (TVB-3664-S8563, Selleck Chemicals), stellate cell activation was initiated by adding recombinant human Tgf-β (240-B-002, R & D Systems) for a 5 ng/mL final concentration. After 48 hours, protein and mRNA were isolated from the cells and further analysis was performed.
Frozen liver tissue punches (25-50 mg) were homogenized in TRIzol (15596018, Thermo Scientific) using the Qiagen TissueLyser II. Chloroform was added to the homogenate and centrifuged for 15 minutes at maximum speed. The clear upper layer was added to an equal volume of 100% isopropanol and incubated for 1 h at 4° C. After 10 min of centrifugation at maximum speed, the supernatant was discarded, and 70 to 75% ethanol was added to wash the pellet. After 5 min of centrifugation at maximum speed, the supernatant was discarded, and the pellet was briefly dried in the hood prior to resuspension in double-distilled water. RNA concentration was measured via the Thermo Scientific NanoDrop2000 spectrophotometer. Complementary DNA was then synthesized from 1 μg of total RNA using iScript cDNA Synthesis Kit (1708890, Bio-Rad) and Bio-Rad T100 thermocycler. Quantitative RT-PCR was performed using iQ SybrGreen Supermix (4368708, Applied Biosystems) on the Bio-Rad CFX96 C1000 Touch Thermal Cycler and analyzed.
(§1) In the analysis of protein expression, cell lysates were homogenized in a RIPA buffer (25 mM Tris, pH 7.4 0.15 M NaCl 0.1% Tween 20) with 1:100 protease inhibitor (78442, Thermo Scientific). The lysates were denatured by boiling, separated on a 4 to 15% SDS/polyacrylamide gel electrophoresis gel (567-1094, Bio-Rad), and transferred to a nitrocellulose membrane (1704159, Bio-Rad). The membrane was blocked using TBS-T with 5% BSA for 1 hour at room temperature and incubated using p-SMAD3 (ab52903, Abcam), type I collagen (1310-30, Southern Biotech), and GAPDH (5174, Cell Signaling). The blot was further washed in TBS-T and incubated at room temperature with its corresponding secondary antibody for 30 minutes. Following another wash, the blot was incubated with ECL (32106, Thermo Scientific) and visualized with the ChemiDox XRS+ image-forming system.
To investigate the role of palmitate production in stellate cell activation, LX2 human stellate cells were treated with a validated, potent and specific small molecule inhibitor of Fasn, TVB-3664, at a final concentration of either 1 nM or 100 nM for 4 hours. Cells were then subjected to 5 ng/mL Tgf-β, a strong stimulator of stellate cell activation. Forty-eight hours later, the morphology of activated stellate cells, with increased cell size and elongation of spindle-like structures, was easily observed in Tgf-β treated cells.

FASN = assay: Cholesterol conjugated Fasn-2314 in Tgfb activated Lx2 cells, Western blotting; type: cell-based, human; conditions: 1.5 uM, Tgfb 5 ng/ml
Procedure: as §1
Moreover, the protein level of Smad3 was also measured for untreated control, cholesterol conjugated non-targeting control, and cholesterol conjugated Fasn-2314. 1×10^6 of human Lx2 cells were plated in 10 cm2 plates and treated with 1.5 uM cholesterol conjugated Fasn-2314. 24 hrs post treatment Lx2 cells were activated with Tgfb (5 ng/ml) to induce fibrotic phenotype. 48 hrs post activation cells were harvested and processed for Western blotting analysis.

[1] = LX2 cells, 1 nM or 100 nM, 4 hours, then 5 ng/mL Tgf-β, 48 hours

Row | Molecule | Tgf-β-induced type 1 collagen protein expression (LX2 human stellate cells; [1]) | mRNA levels of Acta2 (LX2 human stellate cells; [1]) | mRNA levels of Col1a1 (LX2 human stellate cells; [1]) | morphological change of activated stellate cells (LX2 human stellate cells; [1]) | phosphorylated SMAD3 protein (LX2 human stellate cells; [1]) | Cpt1a gene expression (LX2 human stellate cells; Tgf-β activated LX2 cells) | Hsp47 gene expression (LX2 human stellate cells; Tgf-β activated LX2 cells) | Nrf2 gene expression (LX2 human stellate cells; Tgf-β activated LX2 cells) | Pgc-1α gene expression (LX2 human stellate cells; Tgf-β activated LX2 cells) | Pparα gene expression (LX2 human stellate cells; Tgf-β activated LX2 cells) | Sirt1 gene expression (LX2 human stellate cells; Tgf-β activated LX2 cells) | anti-fibrotic effect (LX2 human stellate cells; Tgf-β activated LX2 cells) | expression of Nox4 (LX2 human stellate cells; Tgf-β activated LX2 cells) | LC3II protein (autophagy) (FASN) | activation and collagen production in Tgfb treated stellate cells (FASN) | p62 protein (autophagy) (FASN) | phosphorylation of SMAD3 (FASN)
1 | COCc1[nH]c(C(F)(F)F)nc1-c1cc(C(=O)N2CC(c3ccc(C#N)cc3)C2)c(C)cc1C [TVB-3664] | blocked | reduction | reduction | severely inhibited | reduced | reduction | reduction | remarkable upregulation | remarkable upregulation | remarkable upregulation | remarkable upregulation | strong anti-fibrotic effect | reduction in expression |  |  |  | 
2 | FASN 2314: siRNA targeting human FASN; antisense SEQ ID NO: 56, TegChol sense SEQ ID NO: 57 (sense CCGAGUACAAUGUCAA; antisense UUGACAUUGUACUCGGCGGUU; sugars by position and backbone not given here; 2'-F/2'-OMe modifications not assigned, TegChol cholesterol on sense, further chemistry not fully specified) |  |  |  |  |  |  |  |  |  |  |  |  |  | accumulation | blunted | accumulation | blunted
